Reference: ChEMBL document CHEMBL4699652, “Proline Hinged Amphipathic α-Helical Peptide Sensitizes Gram-Negative Bacteria to Various Gram-Positive Antibiotics” (J Med Chem, 2020)
Calls of active or inactive are those of the source. The rule behind the calls is not given here.

What was measured:
Acinetobacter baumannii [1] = assay: Sensitization of linezolid-induced antimicrobial activity against Acinetobacter baumannii OXA infected in mouse skin infection model assessed as reduction in skin ulcer at 7.5 mg/kg, sc TID for 5 days co-treated with 3.1 mg/kg, sc linezolid; type: functional, organism-based; conditions: time 5.0 day
Escherichia coli [2] = assay: Sensitization of linezolid-induced induction of cell killing in Escherichia coli assessed as time needed for bacterial destruction at 8 ug/ml; type: functional; conditions: dose 8 µg/ml
Cell membrane [3] = assay: Induction of cell membrane fluidity changes in Escherichia coli ATCC 25922 by Laurdan-dye based fluorescence assay; type: subcellular
Escherichia coli [4] = assay: Sensitization of linezolid-induced antimicrobial activity against Cst-resistant Escherichia coli isolates assessed as inhibition of bacterial growth at 8 ug/ml incubated for 18 hrs by CLSI based method; type: functional, organism-based; conditions: dose 8.0 µg/ml
Escherichia coli [5] = assay: Antimicrobial activity against NDM-1 producing carbapenem-resistant Escherichia coli infected in ICR CD1 mouse model of sepsis protection model assessed as increase in mouse survival at 40 mg/kg, sc QD; type: functional, organism-based
Staphylococcus aureus = assay: Antimicrobial activity against Staphylococcus aureus ATCC 29213 assessed as inhibition of bacterial growth incubated for 18 hrs by CLSI based method; type: functional
Lipopolysaccharide (LPS) [6] = assay: Binding affinity to LPS in Escherichia coli D21 assessed as localization in membrane regions at 1 uM using TAMRA-labeled compound by confocal fluorescence microscopy
Escherichia coli [7] = assay: Induction of cell lysis in Escherichia coli at 5 uM by transmission electron microscopy; type: functional, organism-based
Pseudomonas aeruginosa [8] = assay: Sensitization of colistin-induced antimicrobial activity against multidrug-resistant Pseudomonas aeruginosa infected in ICR CD1 mouse model of sepsis protection model assessed as increase in mouse survival at 25 mg/kg, sc QD for 1 days co-treated with 40 mg/kg, sc QD colistin; type: functional; conditions: time 1 day
[9] = Drug uptake in Escherichia coli at 1 uM incubated for 4 hrs using TAMRA-labeled compound; type: ADME
Erythrocyte = assay: Hemolytic activity in human red blood cells assessed as induction of hemoglobin release incubated for 4 hrs by microplate reader based assay; type: cell-based
[10] = Induction of cell membrane permeability in POPE/POPG assessed as calcein leakage at 2 to 8 uM; conditions: dose microM 2-8
Escherichia coli [11] = assay: Binding affinity to outer membrane in POPE/POPG lipid layers containing LPS by SPR assay
[12] = Drug localization in membrane of Escherichia coli at 1 uM incubated for 4 hrs using TAMRA-labeled compound; type: ADME, cell membranes, Cell membrane
Escherichia coli [13] = assay: Sensitization of rifampicin-induced induction of cell killing in Escherichia coli assessed as time needed for bacterial destruction at 8 ug/ml; type: functional; conditions: dose 8 µg/ml
Lipopolysaccharide (LPS) [14] = assay: Binding affinity to LPS in Escherichia coli D21f2 assessed as localization in membrane regions at 1 uM using TAMRA-labeled compound by confocal fluorescence microscopy
[15] = Drug localization in cytosol of Escherichia coli at 1 uM incubated for 4 hrs using TAMRA-labeled compound; type: ADME, subcellular
Escherichia coli [16] = assay: Sensitization of linezolid-induced antimicrobial activity against Escherichia coli ATCC 25922 infected in ICR CD1 mouse model of sepsis protection model assessed as mouse survival at 30 mg/kg, ip q1h x 8 hrs for 1 days co-treated with 25 mg/kg, sc q4h x 8 hrs linezolid; type: functional; conditions: ATCC 25922, 24 h, time 1 day
Escherichia coli [17] = assay: Sensitization of linezolid-induced antimicrobial activity against Escherichia coli ATCC 25922 infected in ICR CD1 mouse neutropenic thigh infection model assessed as reduction in bacterial CFU at 150 mg/kg, ip q2h x 4 hrs co-treated with 150 mg/kg, sc q2h x 4 hrs linezolid; type: functional, organism-based
Escherichia coli [18] = assay: Sensitization of rifampicin-induced antimicrobial activity against Cst-resistant Escherichia coli isolates assessed as inhibition of bacterial growth at 8 ug/ml incubated for 18 hrs by CLSI based method; type: functional, organism-based; conditions: dose 8.0 µg/ml
Cell membrane [19] = assay: Induction of outer membrane re-arragenemnts in Escherichia coli D21f2 incubated for 4 mins by NPN uptake assay; type: subcellular
Escherichia coli [20] = assay: Sensitization of colistin-induced antimicrobial activity against NDM-1 producing carbapenem-resistant Escherichia coli infected in ICR CD1 mouse model of sepsis protection model assessed as increase in mouse survival at 12.5 mg/kg, sc QD for 1 days co-treated with 40 mg/kg, sc QD colistin; type: functional; conditions: time 1 day
Lipopolysaccharide (LPS) [21] = assay: Binding affinity to LPS in Escherichia coli D21f1 assessed as localization in membrane regions at 1 uM using TAMRA-labeled compound by confocal fluorescence microscopy
Lipopolysaccharide (LPS) [22] = assay: Binding affinity to inner core/lipid A region of LPS in Escherichia coli ATCC 25922 at 1.25 uM incubated for 10 mins by protein-retention expansion microscopy
Acinetobacter baumannii [23] = assay: Sensitization of rifampicin-induced antimicrobial activity against Acinetobacter baumannii OXA infected in mouse skin infection model assessed as reduction in skin ulcer at 7.5 mg/kg, sc TID for 5 days co-treated with 20 ug/kg, sc rifampicin; type: functional, organism-based; conditions: time 5.0 day
Escherichia coli [24] = assay: Binding affinity to inner membrane using POPE/POPG (7/3) by SPR assay
Cell membrane [25] = assay: Induction of outer membrane re-arragenemnts in Escherichia coli ATCC 25922 incubated for 4 mins by NPN uptake assay; type: subcellular
Lipopolysaccharide (LPS) [26] = assay: Binding affinity to LPS in Escherichia coli D21e19 assessed as localization in membrane regions at 1 uM using TAMRA-labeled compound by confocal fluorescence microscopy
Lipopolysaccharide (LPS) [27] = assay: Binding affinity to Escherichia coli LPS in POPE/POPG lipid layers containing wild-type LPS by SPR assay
Escherichia coli [28] = assay: Sensitization of rifampicin-induced antimicrobial activity against Escherichia coli ATCC 25922 infected in ICR CD1 mouse model of sepsis protection model assessed as mouse survival at 30 mg/kg, ip q1h x 8 hrs for 1 days co-treated with 5 mg/kg, sc q4h x 8 hrs rifampicin; type: functional; conditions: ATCC 25922, 24 h, time 1 day
Escherichia coli [29] = assay: Sensitization of rifampicin-induced antimicrobial activity against Escherichia coli ATCC 25922 infected in ICR CD1 mouse model of sepsis protection model assessed as increase in mouse survival at 30 mg/kg, ip q1h x 8 hrs for 7 days co-treated with 5 mg/kg, sc q4h x 8 hrs rifampicin; type: functional, organism-based; conditions: time 7.0 day
Escherichia coli [30] = assay: Antimicrobial activity against Escherichia coli ATCC 25922 assessed as inhibition of bacterial growth incubated for 18 hrs by CLSI based method; type: functional
Pseudomonas aeruginosa [31] = assay: Antimicrobial activity against multidrug-resistant Pseudomonas aeruginosa infected in ICR CD1 mouse model of sepsis protection model assessed as increase in mouse survival at 40 mg/kg, sc QD; type: functional, organism-based
Cell membrane [32] = assay: Induction of inner membrane permeability in Escherichia coli assessed as cytoplasmic beta-galactosidase release at 5 uM using ONPG
Escherichia coli [33] = assay: Sensitization of clarithromycin-induced antimicrobial activity against Cst-resistant Escherichia coli isolates assessed as inhibition of bacterial growth at 8 ug/ml incubated for 18 hrs by CLSI based method; type: functional, organism-based; conditions: dose 8.0 µg/ml
Acinetobacter baumannii [34] = assay: Sensitization of clarithromycin-induced antimicrobial activity against Acinetobacter baumannii OXA infected in mouse skin infection model assessed as reduction in skin ulcer at 7.5 mg/kg, sc TID for 5 days co-treated with 20 ug/kg, sc clarithromycin; type: functional, organism-based; conditions: time 5.0 day

Ac-KLLKLLKKPLKLLK-NH2
Activity (Acinetobacter baumannii [1]): Active | Time (Escherichia coli [2]): 8 h | Activity (Cell membrane [3]): Dose-dependent effect | Activity (Escherichia coli [4]): Active | Activity (Escherichia coli [5]): inactive | MIC (Staphylococcus aureus): > 80 µM | Activity (Lipopolysaccharide (LPS) [6]): Active | Activity (Escherichia coli [7]): inactive | Activity (Pseudomonas aeruginosa [8]): 75% | Drug uptake [9]: Active | HC10 (Erythrocyte): > 1280 µM | Activity [10]: inactive | Activity (Escherichia coli [11]): inactive | Drug uptake [12]: Active | Time (Escherichia coli [13]): 8 h | Activity (Lipopolysaccharide (LPS) [14]): Active | Drug uptake [15]: Not Active | survival at 30 mg/kg (Escherichia coli [16]): 90% | Activity (Escherichia coli [17]): Active | Activity (Escherichia coli [18]): Active | Activity (Cell membrane [19]): inactive | Activity (Escherichia coli [20]): 75% | Activity (Lipopolysaccharide (LPS) [21]): Active | Activity (Lipopolysaccharide (LPS) [22]): Active | Activity (Acinetobacter baumannii [23]): Active | Activity (Escherichia coli [24]): Active | Activity (Cell membrane [25]): Active | Activity (Lipopolysaccharide (LPS) [26]): Active | Activity (Lipopolysaccharide (LPS) [27]): Active | survival at 30 mg/kg (Escherichia coli [28]): 90% | Activity (Escherichia coli [29]): Active | MIC (Escherichia coli [30]): > 80 µM | Activity (Pseudomonas aeruginosa [31]): inactive | Activity (Cell membrane [32]): inactive | Activity (Escherichia coli [33]): Active | Activity (Acinetobacter baumannii [34]): Active
